Laboratory results published in PMC5415745, “Drug-transporter mediated interactions between anthelminthic and antiretroviral drugs across the Caco-2 cell monolayers” (BMC Pharmacology & Toxicology, 2017).
Several values for one entry are separate records, joined by “and”; a condition that tells them apart may be missing. Equal entries are not always repeated. Entries after “also recorded” stand apart in the source; their conditions may differ.

Key:
Caco-2 cell monolayers = assay: Bidirectional (AP→BL, BL→AP) drug transport across Caco-2 cell monolayers in transwells: cumulative transport, Papp, efflux ratio; HPLC or radiolabeled assay
[1] = as above; details: human
[2] = 120 min, individual samples 1-3
[3] = 180 min, individual samples 1-3
[4] = 240 min, individual samples 1-3
[5] = IVM alone (SQV experiment), 60 min, mean
[6] = IVM alone (SQV experiment), 120 min, mean
[7] = IVM alone (SQV experiment), 120 min, samples 1-3
[8] = IVM alone (SQV experiment), 180 min, mean
[9] = IVM alone (SQV experiment), 180 min, samples 1-3
[10] = IVM alone (SQV experiment), 240 min, mean
[11] = IVM alone (SQV experiment), 240 min, samples 1-3
[12] = IVM alone (SQV experiment), after 60min, individual samples
[13] = IVM alone (SQV experiment), after 60min, mean
[14] = IVM alone, 60 min, individual experiments 1-3
[15] = IVM alone, 120 min, individual experiments 1-3
[16] = IVM alone, 180 min, individual experiments 1-3
[17] = IVM alone, 240 min, individual experiments 1-3
[18] = [3H] IVM alone, 60 min, individual experiments 1-3
[19] = [3H] IVM alone, 60 min, mean, n=3
[20] = [3H] IVM alone, 120 min, individual experiments 1-3
[21] = [3H] IVM alone, 120 min, mean, n=3
[22] = [3H] IVM alone, 180 min, individual experiments 1-3
[23] = [3H] IVM alone, 180 min, mean, n=3
[24] = [3H] IVM alone, 240 min, individual experiments 1-3
[25] = [3H] IVM alone, 240 min, mean, n=3
[26] = [3H] IVM alone, after 60 min, mean, n=3
[27] = [3H] IVM alone, after 60 min, samples 1-3
[28] = labelled drug is the interacting drug
[29] = samples after 60min, individual samples 1-3, IVM alone
[30] = samples after 60min, mean n=3, IVM alone
[31] = [3H] LPV alone, 60 min, individual experiments 1-3
[32] = [3H] LPV alone, 60 min, mean, n=3
[33] = [3H] LPV alone, 120 min, individual experiments 1-3
[34] = [3H] LPV alone, 120 min, mean, n=3
[35] = [3H] LPV alone, 180 min, individual experiments 1-3
[36] = [3H] LPV alone, 180 min, mean, n=3
[37] = [3H] LPV alone, 240 min, individual experiments 1-3
[38] = [3H] LPV alone, 240 min, mean, n=3
[39] = [3H] LPV alone, after 60 min, samples 1-3

CC[C@H](C)[C@H]1O[C@]2(CC[C@@H]1C)C[C@@H]1C[C@@H](C/C=C(\C)[C@@H](O[C@H]3C[C@H](OC)[C@@H](O[C@H]4C[C@H](OC)[C@@H](O)[C@H](C)O4)[C@H](C)O3)[C@@H](C)/C=C/C=C3\CO[C@@H]4[C@H](O)C(C)=C[C@@H](C(=O)O1)[C@]34O)O2 [IVM, ivermectin]
Apical to basal transport (cumulative, receiver) (Caco-2 cell monolayers; 60 min, individual samples 1-3): 0.57 pmol and 0.44 pmol and 1.00 pmol | Basal to apical transport (cumulative, receiver) (Caco-2 cell monolayers; 60 min, individual samples 1-3): 0.65 pmol and 0.55 pmol and 0.96 pmol | Apical to basal transport (cumulative, receiver), Mean (Caco-2 cell monolayers; 60 min, mean n=3): 0.67 pmol | Basal to apical transport (cumulative, receiver), Mean (Caco-2 cell monolayers; 60 min, mean n=3): 0.72 pmol | Apical to basal transport (cumulative, receiver) (Caco-2 cell monolayers; [2]): 0.50 pmol and 0.61 pmol and 1.00 pmol | Basal to apical transport (cumulative, receiver) (Caco-2 cell monolayers; [2]): 1.34 pmol and 1.05 pmol and 1.67 pmol | Apical to basal transport (cumulative, receiver), Mean (Caco-2 cell monolayers; 120 min, mean n=3): 0.71 pmol | Apical to basal transport (cumulative, receiver) (Caco-2 cell monolayers; [3]): 0.66 pmol and 0.77 pmol and 1.54 pmol | Basal to apical transport (cumulative, receiver) (Caco-2 cell monolayers; [3]): 1.45 pmol and 1.96 pmol | Apical to basal transport (cumulative, receiver), Mean (Caco-2 cell monolayers; 180 min, mean n=3): 0.99 pmol | Basal to apical transport (cumulative, receiver), Mean (Caco-2 cell monolayers; 180 min, mean n=3): 1.63 pmol | Apical to basal transport (cumulative, receiver) (Caco-2 cell monolayers; [4]): 0.96 pmol and 0.81 pmol and 1.30 pmol | Basal to apical transport (cumulative, receiver) (Caco-2 cell monolayers; [4]): 2.52 pmol and 1.59 pmol and 2.27 pmol | Apical to basal transport (cumulative, receiver), Mean (Caco-2 cell monolayers; 240 min, mean n=3): 1.03 pmol | Basal to apical transport (cumulative, receiver), Mean (Caco-2 cell monolayers; 240 min, mean n=3): 2.13 pmol | Apical to basal transport Mean (Caco-2 cell monolayers; [5]): 11.45 fmol | Basal to apical transport Mean (Caco-2 cell monolayers; [5]): 11.69 fmol | Basal to apical transport (Caco-2 cell monolayers; IVM alone (SQV experiment), 60 min, samples 1-3): 12.29 fmol and 9.26 fmol | Apical to basal transport Mean (Caco-2 cell monolayers; [6]): 15.92 fmol | Basal to apical transport Mean (Caco-2 cell monolayers; [6]): 17.90 fmol | Apical to basal transport (Caco-2 cell monolayers; [7]): 0.01408 pmol and 0.02131 pmol and 0.01237 pmol | Basal to apical transport (Caco-2 cell monolayers; [7]): 21.06 fmol and 15.84 fmol and 16.78 fmol | Apical to basal transport Mean (Caco-2 cell monolayers; [8]): 20.75 fmol | Basal to apical transport Mean (Caco-2 cell monolayers; [8]): 25.75 fmol | Apical to basal transport (Caco-2 cell monolayers; [9]): 0.02329 pmol and 0.01834 pmol and 0.02063 pmol | Basal to apical transport (Caco-2 cell monolayers; [9]): 26.26 fmol | Apical to basal transport Mean (Caco-2 cell monolayers; [10]): 25.60 fmol | Basal to apical transport Mean (Caco-2 cell monolayers; [10]): 35.30 fmol | Apical to basal transport (Caco-2 cell monolayers; [11]): 0.02118 pmol and 0.03003 pmol and 0.0256 pmol | Basal to apical transport (Caco-2 cell monolayers; [11]): 45.23 fmol and 24.14 fmol and 36.53 fmol | Apical to basal transport Conc. Basal (Caco-2 cell monolayers; [12]): 15.84 fmol and 11.06 fmol and 7.45 fmol | Basal to apical transport Conc. Apical (Caco-2 cell monolayers; [12]): 13.53 fmol | PappAB (Caco-2 cell monolayers; [12]): 10.74 10^6 cm/s and 7.18 10^6 cm/s and 4.31 10^6 cm/s | PappBA (Caco-2 cell monolayers; [12]): 7.36 10^6 cm/s and 5.84 10^6 cm/s and 4.54 10^6 cm/s | PappAB Mean (Caco-2 cell monolayers; [13]): 7.41 10^6 cm/s | PappBA Mean (Caco-2 cell monolayers; [13]): 5.92 10^6 cm/s | Apical to basal transport (Caco-2 cell monolayers; [14]): 8.30 pmol and 7.46 pmol and 8.35 pmol | Basal to apical transport (Caco-2 cell monolayers; [14]): 15750 fmol and 21160 fmol | Apical to basal transport Mean (Caco-2 cell monolayers; IVM alone, 60 min, mean, n=3): 8040 fmol | Basal to apical transport Mean (Caco-2 cell monolayers; IVM alone, 60 min, mean, n=3): 17700 fmol | Apical to basal transport (Caco-2 cell monolayers; [15]): 17.04 pmol and 10.98 pmol and 9.22 pmol | Basal to apical transport (Caco-2 cell monolayers; [15]): 21400 fmol and 27210 fmol and 31370 fmol | Apical to basal transport Mean (Caco-2 cell monolayers; IVM alone, 120 min, mean, n=3): 12410 fmol | Basal to apical transport Mean (Caco-2 cell monolayers; IVM alone, 120 min, mean, n=3): 26660 fmol | Apical to basal transport (Caco-2 cell monolayers; [16]): 20.27 pmol and 13.19 pmol and 16.36 pmol | Basal to apical transport (Caco-2 cell monolayers; [16]): 26810 fmol and 40700 fmol | Apical to basal transport Mean (Caco-2 cell monolayers; IVM alone, 180 min, mean, n=3): 16610 fmol | Basal to apical transport Mean (Caco-2 cell monolayers; IVM alone, 180 min, mean, n=3): 31010 fmol | Apical to basal transport (Caco-2 cell monolayers; [17]): 16.26 pmol and 22.17 pmol and 13.75 pmol | Basal to apical transport (Caco-2 cell monolayers; [17]): 35200 fmol and 45800 fmol | Apical to basal transport Mean (Caco-2 cell monolayers; IVM alone, 240 min, mean, n=3): 17390 fmol | Basal to apical transport Mean (Caco-2 cell monolayers; IVM alone, 240 min, mean, n=3): 37700 fmol | Apical to basal transport (Caco-2 cell monolayers; [18]): 0.01435 pmol and 0.01486 pmol and 0.01544 pmol | Basal to apical transport (Caco-2 cell monolayers; [18]): 12.86 fmol and 12.68 fmol | Apical to basal transport Mean (Caco-2 cell monolayers; [19]): 14.88 fmol | Basal to apical transport Mean (Caco-2 cell monolayers; [19]): 13.03 fmol | Apical to basal transport (Caco-2 cell monolayers; [20]): 0.0208 pmol and 0.02034 pmol and 0.02175 pmol | Basal to apical transport (Caco-2 cell monolayers; [20]): 17.34 fmol and 18.56 fmol and 18.52 fmol | Apical to basal transport Mean (Caco-2 cell monolayers; [21]): 20.96 fmol | Basal to apical transport Mean (Caco-2 cell monolayers; [21]): 18.14 fmol | Apical to basal transport (Caco-2 cell monolayers; [22]): 0.02572 pmol and 0.02395 pmol and 0.02543 pmol | Basal to apical transport (Caco-2 cell monolayers; [22]): 17.07 fmol and 23.80 fmol and 31.79 fmol | Apical to basal transport Mean (Caco-2 cell monolayers; [23]): 25.03 fmol | Basal to apical transport Mean (Caco-2 cell monolayers; [23]): 24.22 fmol | Apical to basal transport (Caco-2 cell monolayers; [24]): 0.02516 pmol and 0.02638 pmol and 0.02306 pmol | Basal to apical transport (Caco-2 cell monolayers; [24]): 22.70 fmol and 28.67 fmol and 34.20 fmol | Apical to basal transport Mean (Caco-2 cell monolayers; [25]): 24.86 fmol | Basal to apical transport Mean (Caco-2 cell monolayers; [25]): 28.52 fmol | PappAB Mean (Caco-2 cell monolayers; [26]): 14.06 10^6 cm/s | PappBA Mean (Caco-2 cell monolayers; [26]): 11.32 10^6 cm/s | Apical to basal transport Conc. Apical (Caco-2 cell monolayers; [27]): 101.63 fmol and 106.60 fmol and 109.59 fmol | Basal to apical transport Conc. Apical (Caco-2 cell monolayers; [27]): 13.56 fmol | Basal to apical transport Conc. Basal (Caco-2 cell monolayers; [27]): 110.67 fmol and 126.53 fmol and 111.99 fmol | PappAB Papp (Caco-2 cell monolayers; [27]): 16.8 ×10⁻⁶ cm/s and 13.7 ×10⁻⁶ cm/s and 11.7 ×10⁻⁶ cm/s | PappBA Papp (Caco-2 cell monolayers; [27]): 14.6 ×10⁻⁶ cm/s and 9.96 ×10⁻⁶ cm/s and 9.43 ×10⁻⁶ cm/s | Effect on the (efflux) transport of SQV (Caco-2 cell monolayers; [28]): significantly inhibited | Effect on the efflux of EFV (Caco-2 cell monolayers; [28]): increased; also recorded: marginally significant increase | Effect on the efflux transport of LPV (Caco-2 cell monolayers; [28]): significantly inhibited; also recorded: eightfold inhibition | Effect on the transport of NVP (Caco-2 cell monolayers; [28]): did not appear to significantly influence | PappAB Papp (Caco-2 cell monolayers; [29]): 7.59 10^9 cm/s and 4.95 10^9 cm/s and 10.26 10^9 cm/s | PappBA Papp (Caco-2 cell monolayers; [29]): 10.18 10^9 cm/s and 5.89 10^9 cm/s and 10.76 10^9 cm/s | PappAB Mean (Caco-2 cell monolayers; [30]): 7.60 10^9 cm/s | PappBA Mean (Caco-2 cell monolayers; [30]): 8.94 10^9 cm/s

Cc1cccc(C)c1OCC(=O)N[C@@H](Cc1ccccc1)[C@@H](O)C[C@H](Cc1ccccc1)NC(=O)[C@H](C(C)C)N1CCCNC1=O [LPV, lopinavir]
Papp A→B at 60 min ([1]; Caco-2, Papp AP → BL, mean (n=3) after 60 min, drug A alone, or label 'A + B' = transport of A in presence of interacting drug B, concentrations per Table 1): 4.8 ×10⁻⁶ cm/s | Papp B→A at 60 min ([1]; Caco-2, Papp BL → AP, mean (n=3) after 60 min, drug A alone, or label 'A + B' = transport of A in presence of interacting drug B, concentrations per Table 1): 32.1 ×10⁻⁶ cm/s | Papp A→B at 60 min ([1]; Caco-2, PappAB Papp, [3H] LPV alone, after 60 min, samples 1-3): 5.95 ×10⁻⁶ cm/s | Papp B→A at 60 min ([1]; Caco-2, PappBA Papp, [3H] LPV alone, after 60 min, samples 1-3): 36.3 ×10⁻⁶ cm/s | Apical to basal transport (Caco-2 cell monolayers; [31]): 0.92 pmol and 0.73 pmol and 0.68 pmol | Basal to apical transport (Caco-2 cell monolayers; [31]): 4420 fmol and 4440 fmol and 5330 fmol | Apical to basal transport Mean (Caco-2 cell monolayers; [32]): 780 fmol | Basal to apical transport Mean (Caco-2 cell monolayers; [32]): 4730 fmol | Apical to basal transport (Caco-2 cell monolayers; [33]): 1.24 pmol and 1.79 pmol and 1.27 pmol | Basal to apical transport (Caco-2 cell monolayers; [33]): 7380 fmol and 6910 fmol and 8430 fmol | Apical to basal transport Mean (Caco-2 cell monolayers; [34]): 1430 fmol | Basal to apical transport Mean (Caco-2 cell monolayers; [34]): 7570 fmol | Apical to basal transport (Caco-2 cell monolayers; [35]): 1.93 pmol and 2.34 pmol and 1.52 pmol | Basal to apical transport (Caco-2 cell monolayers; [35]): 9010 fmol and 8460 fmol and 10620 fmol | Apical to basal transport Mean (Caco-2 cell monolayers; [36]): 1930 fmol | Basal to apical transport Mean (Caco-2 cell monolayers; [36]): 9360 fmol | Apical to basal transport (Caco-2 cell monolayers; [37]): 2.15 pmol and 2.71 pmol and 1.78 pmol | Basal to apical transport (Caco-2 cell monolayers; [37]): 11970 fmol and 11410 fmol and 12040 fmol | Apical to basal transport Mean (Caco-2 cell monolayers; [38]): 2210 fmol | Basal to apical transport Mean (Caco-2 cell monolayers; [38]): 11810 fmol | PappBA Mean (Caco-2 cell monolayers; [3H] LPV alone, after 60 min, mean, n=3): 32.09 10^9 cm/s | Apical to basal transport Conc. Apical (Caco-2 cell monolayers; [39]): 18430 fmol and 19890 fmol | Basal to apical transport Conc. Basal (Caco-2 cell monolayers; [39]): 14480 fmol and 17270 fmol and 21600 fmol | Effect on the transport of IVM (Caco-2 cell monolayers; [28]): twofold decrease in the efflux ratio
